Our source for the TGI values is PubChem BioAssay (NCI).

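How tested: cells in 96-well plates exposed to compound for 48 hours at five concentrations. TGI: total growth inhibition.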 A value given as a limit tells only on which side of the number the result lay.

What all share (experiment): growth of human tumour cells (NCI), 48 h
Test [1] concerns SNB-78 CNS.
The subject of test [2] is IGROV1 ovarian.
Test [3] concerns LXFL 529 NSCLC.
The subject of test [4] is HOP-92 NSCLC.
Test [5] deals with XF 498 CNS.
Test [6] deals with DMS 114 small cell lung.
Test [7] concerns DMS 273 small cell lung.

For the compound `O=NN(CCCl)C(=O)NCc1ccc[n+]([O-])c1`, the TGI in test [1], in test [2], in test [3], in test [4], in test [5] and in test [6] was above 100 µM each time.
Take `Brc1nc2c3ccccc3ncn2c1Br`: the TGI in test [1] was above 100 µM; in test [2] it was above 100 µM; in test [7], above 100 µM; in test [3], above 100 µM; in test [4], 76.5 µM; in test [5], 46.9 µM. The TGI in test [6] amounted to 98.4 µM.
For the compound `O=[N+]([O-])c1ccc(OCCNc2cccc3ccccc23)cc1`, the TGI in test [2], in test [7], in test [3], in test [4], in test [5] and in test [6] was above 100 µM in each case.
As to `COc1cccc(/C=C\c2cc(OC)c(OC)c(OC)c2)c1`, the TGI is 58.9 µM in test [1]; above 100 µM in test [2]; 39.6 µM in test [7]; above 100 µM in test [3]; above 100 µM in test [4]; 35.8 µM in test [5]. This compound also came in with a TGI in test [6] of 67.3 µM.
On to `O=C1C(c2ccc(Cl)cc2)=[N+]([O-])c2ccccc21`, for which the TGI in test [2] was found to be 33.9 µM; in test [3] it was 18.6 µM; in test [5], 34.7 µM; in test [6], 14.3 µM.
As to `C=CC[P@@]1(=O)O[C@H](c2ccccc2)C(C)N1C(C)C` (some centres not stated), the TGI in test [1], in test [2], in test [7], in test [3], in test [5] and in test [6] was above 100 µM each time.
Regarding `O=C1C2c3[nH]c4ccccc4c3C3CCSCC3C2C(=O)N1c1ccccc1` (configuration not stated), the TGI in test [1], in test [2], in test [7], in test [3], in test [4] and in test [5] was above 100 µM in each case.
As for `CC(C)(C)c1ccc(Oc2ccc(C#N)c(C#N)c2)c(C(C)(C)C)c1`, the TGI was above 100 µM in test [1]; above 100 µM in test [2]; 28.5 µM in test [7]; above 100 µM in test [3]; above 100 µM in test [4]; 35.4 µM in test [5]. This compound yielded a TGI in test [6] above 52.2 µM.
As for `CCCOP1(=O)C=C(C)C(Cl)=C(C)C1` (configuration not stated), the TGI in test [2] was above 100 µM; in test [7] it was 36.7 µM; in test [3] it was 42.9 µM; in test [4], 48.6 µM; in test [5], 31.4 µM; in test [6], 46.3 µM.
As to `N#CC12CCC(O)C(CC1)C2=O` (configuration not stated), the TGI is above 100 µM in test [1]; above 100 µM in test [2]; above 100 µM in test [7]; above 100 µM in test [5]; 36 µM in test [6].
As for `O=C(c1ccccc1)c1ccc2cccc(O)c2n1`, the TGI in test [1] was above 100 µM; in test [2], above 100 µM; in test [7], above 100 µM; in test [5] it was above 100 µM; in test [6], 39.1 µM.
For the compound `CC(=O)CC(=O)CCCC(=O)Nc1ccc(Cl)cc1Cl`, the TGI in test [2], in test [7], in test [3], in test [4] and in test [5] was above 100 µM in each case.
As to `COC(=O)C(=O)C(C(=O)C(=O)Nc1ccc([N+](=O)[O-])cc1[N+](=O)[O-])c1nc2ccc([N+](=O)[O-])cc2[nH]c1=O` (configuration not stated), the TGI in test [1], in test [2], in test [7], in test [3], in test [4] and in test [5] was above 100 µM in each case. In test [6], this compound yielded a TGI above 100 µM.
Regarding `Cc1c2[nH]c3ccc(Br)cc3c2c(C)c2[nH]ccc(=O)c12`, the TGI in test [1] is 35.7 µM; in test [7], 27 µM; in test [5], 29.7 µM; in test [6] it was 35.2 µM.
As for `COC(=O)[C@H](C)[C@H]1CC[C@@](C)([C@H]2CC3C(C)(C)[C@H]4CCC(C)=C[C@H]4C[C@@]3(C)O2)OO1` (some centres not stated), the TGI in test [1] came out at 28.9 µM; in test [2], 11.1 µM; in test [7] it was 26.1 µM; in test [3], 7.79 µM; in test [4], 12.4 µM; in test [5] it was 21.8 µM. In test [6], this compound returned a TGI of 14.2 µM.
For `CCC12CCC(O)C1N(C)CCC2Sc1ccccc1` (configuration not stated), the TGI was above 100 µM in test [1]; above 100 µM in test [2]; above 100 µM in test [7]; 94.3 µM in test [4]; above 100 µM in test [5]; above 100 µM in test [6].
Consider `Cc1cc(N(CCC#N)CCC#N)ccc1N=Nc1ccccc1[N+](=O)[O-]`, for which the TGI in test [1] was above 100 µM; in test [2] it was above 100 µM; in test [7], above 100 µM; in test [3], above 100 µM; in test [5] it was 80.9 µM; in test [6], above 100 µM.
In the case of `Cc1ccc(C)c(NC(=O)CC2C(=O)Nc3ccccc3S2(=O)=O)c1` (configuration not stated), the TGI in test [1] is above 100 µM; in test [2], above 100 µM; in test [7], above 100 µM; in test [3] it was above 100 µM; in test [4], above 100 µM; in test [5], 61.6 µM. The TGI in test [6] was above 100 µM.
On to `NC(=O)c1csc(C2O[C@@H](COP(=O)(O)OP(=O)(O)OC[C@H]3OC(n4cnc5c(N)ncnc54)[C@H](O)[C@@H]3O)[C@H](O)[C@@H]2O)n1` (some centres not stated), for which the TGI in test [1], in test [2], in test [7], in test [3], in test [4] and in test [5] was above 100 µM in each case. The compound further returned a TGI in test [6] above 100 µM.
`Cc1ccc(C2=[N+]([O-])c3ccccc3C2=O)cc1`: the TGI came out at 74.2 µM in test [1]; 43 µM in test [2]; 22.9 µM in test [3]; 39.2 µM in test [4]; 17.8 µM in test [5]; 28.2 µM in test [6].
Turning to `CC1(c2ccccc2)CC12C(=O)NC(=O)NC2=O` (configuration not stated), the TGI in test [1], in test [2], in test [7], in test [3], in test [4] and in test [5] was above 100 µM throughout. Besides, the TGI in test [6] was above 100 µM.
Take `COC1CCC2C(=O)CCCC2O1` (configuration not stated): the TGI in test [1], in test [2], in test [7], in test [3], in test [4] and in test [5] was above 100 µM throughout. In addition, in test [6], the TGI is above 100 µM.
For the compound `CCCCCCC(O)C/C=C/CCCCCC/C(C(=O)OC)=C(/O)C(=O)OCC` (configuration not stated), the TGI in test [1], in test [2], in test [7], in test [3], in test [4] and in test [5] was above 100 µM each time. Further, the TGI in test [6] was above 100 µM.
With `COC(=O)C1Cc2c(n(C)c3ccccc23)C(c2ccccc2)N1` (configuration not stated), the TGI in test [1], in test [2], in test [7], in test [3], in test [4] and in test [6] was above 100 µM in each case.
